Data published in US8722629B2, “Auristatin derivatives and use thereof” (Seattle Genetics, Inc., priority 2010, dated 2014).
Where a name gives a salt, the structure may show the parent alone. Starred links: 1 amine or outer side, 2 acyl side, 3 side chain; linkers in the order of their positions; H or OH if unused. Non-standard residues stand in square brackets, D forms with d. Residues, ends and D or L forms follow the SMILES beside them. *: point of attachment. Dolaproine = CO[C@@H]([C@@H]1CCCN1)[C@@H](C)C(=O)O; X2 = C[C@@H](c1ccccc1)[C@H](N[*:1])C(=O)[*:2]; X1 = O=C([C@]1(N[*:1])C[C@@H]1c1ccccc1)[*:2]; Dil = CC[C@H](C)[C@H](NC)[C@@H](CC(=O)O)OC; Oxazinan2yl(1,2) = C1CCN(*)OC1; NMeV = CN[C@H](C(=O)O)C(C)C; X3 = c1ccc2c(c1)CON(*)C2

Legend:
[1] = test system: human renal cancer cell line 786-0; test: Antiproliferative effect on the 786-0 RCC cell line (MTT assay); type: cell-based; conditions: Homo sapiens, 786-0, 786-0 cells, incubation 48 h to 96 h
Protocol: B-1. Determination of the Antiproliferative Effect on the 786-0 RCC Cell Line:
A defined cell number of the human renal cancer cell line 786-0 was sown in a 96-well microtiter plate in complete medium (2500 or 7000 cells/well) and incubated at 37° C./5% CO2 overnight. After 18 h, the sowing medium was replaced by serum-free medium or medium with 2% FCS. Treatment was initiated by addition of the respective test substance in varying concentration (10^−5 M to […]). The chosen incubation times were from 48 h to 96 h. Proliferation was determined with the aid of the MTT assays (ATCC, Manassas, Va., USA, catalogue No. 30-1010K). After the incubation time, the MTT reagent was incubated with the cells for 4 h, and the cells were subsequently lysed by adding the detergent overnight. The dye formed was detected at 570 nm. […] The data obtained from this test are triple determinations, and at least two independent experiments were carried out.

[2] = test system: human colon carcinoma cell line HT29 wt (wild type); test: Antiproliferative effect on the HT29 wt cell line (MTT assay); type: cell-based; conditions: Homo sapiens, HT-29, HT29 wt cells, 10% FCS, incubation 48 h to 96 h
Protocol: B-2. Determination of the Antiproliferative Effect on the HT29 Wt Cell Line:
A defined cell number of the human colon carcinoma cell line HT29 wt (wild type) was sown in a 96-well microtiter plate in complete medium (10% FCS-RPMI) (2500 cells/well) and incubated at 37° C./5% CO2 overnight. After 18 h, the sowing medium was replaced by fresh medium with 10% FCS. Treatment was initiated by addition of the respective test substance. From the substances to be investigated, dose/activity curves in a concentration range of from 10^−5 M to 10^−14 M (1:10-dilution series) were determined. The chosen incubation times were from 48 h to 96 h. Pro-liferation was determined with the aid of the MTT assays (ATCC, Manassas, Va., USA, catalogue No. 30-1010K). After the incubation time, the MTT reagent was incubated with the cells for 4 h, and the cells were subsequently lysed by adding the detergent overnight. The dye formed was detected at 570 nm. Proliferation of cells which had not been treated with test substance, but had otherwise been treated identically, was defined as 100%. The data obtained from this test are triple determinations, and at least two independent experiments were carried out.

[3] = Plasma stability in vitro, rat plasma; type: in vitro ADME; conditions: 37° C.; for half-life at 39.2 µg/ml: male, Wistar, rat plasma (Li heparin), Method A (HPLC)
Protocol: (§1) B-4. Determination of the Plasma Stability in vitro:
(§2) 1 mg of the test substance in question was dissolved in 0.5 ml of acetonitrile/DMSO (9:1). From this solution, 20 μl were removed and added to 1 ml of rat or human plasma at 37° C. (plasma of male Wistar rats with Li heparin from Harlan & Winkelmann or fresh human leukocyte-depleted plasma originating from a whole blood sample). From this plasma solution, which was shaken vigorously, 100 μl aliquots were removed immediately after addition of the sample (initial value as reference) and then after 5, 10, 30, 60, 120, 180 and 240 minutes and optionally after 24 hours and added to 300 μl of acetonitrile. The precipitated plasma proteins were removed by centrifugation at 5000 rpm for 10 minutes, and 30 μl of the supernatant were analysed by HPLC for its content of unmodified test substance. Quantification was via the area percentages of the corresponding peaks.
HPLC Method for Rat Plasma:
Instrument: Agilent 1200 with DAD, binary pump, autosampler, column oven and thermostat; column: Kromasil 100 C18, 250 mm×4 mm, […]; column temperature: 45° C.; mobile phase A: 5 ml of perchloric acid/1 of water, mobile phase B: acetonitrile; gradient: 0-8 min 98% A, 2% B; 8-15 min 56% A, 44% B; […] 10% A, 90% B; 20-21 min 10% A, 90% B; […] 98% A, 2% B; […] 98% A, 2% B; flow rate: 2 ml/min; UV detection: 220 nm.
(§3) The test substance was incubated in rat or human plasma at 37° C. over a period of 5 h with gentle stirring. At different points in time (0, 2, 5, 10, 20, 30, 60, 120, 180 and 300 minutes), a 100 μl aliquot was removed. Following addition of internal standard (10 μl), the proteins were precipitated by addition of 200 μl of acetonitrile and the mixture was centrifuged in an Eppendorf centrifuge for 5 minutes. After addition of 150 μl of ammonium acetate buffer pH 3 to 150 μl of the supernatant, the content of unmodified test substance was analysed by LC/MSMS.

[4] = Plasma stability in vitro, human plasma; type: in vitro ADME
Protocol: as §1, §2
HPLC Method for Human Plasma:
Instrument: Agilent 1100 with DAD, binary pump, autosampler, column oven and thermostat;
column: Kromasil 100 C18, 250 mm×4 mm, 5 μm; column temperature: 45° C.; mobile phase A: 5 ml of perchloric acid/1 of water, mobile phase B: acetonitrile; gradient: 0-3 min 98% A, 2% B; 3-10 min 65% A, 35% B; 10-15 min 40% A, 60% B; 15-21 min 10% A, 90% B; 21-22 min 10% A, 90% B; 22-24 min 98% A, 2% B; 24-26 min 98% A, 2% B; flow rate: 2 ml/min; UV detection: 220 nm.
as §3

Row | SMILES | IC50 [1] [nM] | IC50 [2] [nM] | half-life at 39.2 µg/ml [3] [h] | degradation in human plasma after 24 h [4] | half-life ([3]; Method B (LC/MSMS)) [h] | degraded in human plasma during 24 h [4] | t1/2 ([3]; Method A) [min]
1 | CC[C@H](C)[C@@H]([C@@H](CC(=O)N1CCC[C@H]1[C@H](OC)[C@@H](C)C(=O)N[C@@]1(C(=O)N2CCCCO2)C[C@@H]1c1ccccc1)OC)N(C)C(=O)[C@@H](NC(=O)[C@H](C(C)C)N(C)CCCC(=O)O)C(C)C [Example 23, N-(3-Carboxypropyl)-N-methyl-L-valyl-N-[(3R,4S,5S)-3-methoxy-1-{(2S)-2-[(1R,2R)-1-methoxy-2-methyl-3-{[(1S,2R)-1-(1,2-oxazinan-2-ylcarbonyl)-2-phenylcyclopropyl]amino}-3-oxopropyl]-pyrrolidin-1-yl}-5-methyl-1-oxoheptan-4-yl]-N-methyl-L-valinamide] | 11 | 0.7 | > 24 | – | – | – | –
2 | CC[C@H](C)[C@@H]([C@@H](CC(=O)N1CCC[C@H]1[C@H](OC)[C@@H](C)C(=O)N[C@@H](Cc1ccccc1)C(=O)N1CCCCO1)OC)N(C)C(=O)[C@@H](NC(=O)[C@@H](NC)C(C)C)C(C)C [Example 1, N-Methyl-L-valyl-N-[(3R,4S,5S)-3-methoxy-1-{(2S)-2-[(1R,2R)-1-methoxy-2-methyl-3-{[(2S)-1-(1,2-oxazinan-2-yl)-1-oxo-3-phenylpropan-2-yl]amino}-3-oxopropyl]pyrrolidin-1-yl}-5-methyl-1-oxoheptan-4-yl]-N-methyl-L-valinamide, trifluoroacetic acid salt] (H-[NMeV]V[Dil][Dolaproine]F-{Oxazinan2yl(1,2)}) | 4 | 0.1 | – | no degradation was observed | – | – | –
3 | CC[C@H](C)[C@@H]([C@@H](CC(=O)N1CCC[C@H]1[C@H](OC)[C@@H](C)C(=O)N[C@@]1(C(=O)N2Cc3ccccc3CO2)C[C@@H]1c1ccccc1)OC)N(C)C(=O)[C@@H](NC(=O)[C@@H](NC)C(C)C)C(C)C [Example 18, N-Methyl-L-valyl-N-[(3R,4S,5S)-1-{(2S)-2-[(1R,2R)-3-{[(1S,2R)-1-(1,4-dihydro-3H-2,3-benzoxazin-3-ylcarbonyl)-2-phenylcyclopropyl]amino}-1-methoxy-2-methyl-3-oxopropyl]pyrrolidin-1-yl}-3-methoxy-5-methyl-1-oxoheptan-4-yl]-N-methyl-L-valinamide, trifluoroacetic acid salt] (H-[NMeV]V[Dil][Dolaproine][X1]-X3) | – | 1.2 | > 24 | – | – | – | –
4 | CC[C@H](C)[C@@H]([C@@H](CC(=O)N1CCC[C@H]1[C@H](OC)[C@@H](C)C(=O)N[C@H](Cc1ccccc1)C(=O)N1CCCCO1)OC)N(C)C(=O)[C@@H](NC(=O)[C@@H](NC)C(C)C)C(C)C [Example 21, N-Methyl-L-valyl-N-[(3R,4S,5S)-3-methoxy-1-{(2S)-2-[(1R,2R)-1-methoxy-2-methyl-3-{[(2R)-1-(1,2-oxazinan-2-yl)-1-oxo-3-phenylpropan-2-yl]amino}-3-oxopropyl]pyrrolidin-1-yl}-5-methyl-1-oxoheptan-4-yl]-N-methyl-L-valinamide, trifluoroacetic acid salt] (H-[NMeV]V[Dil][Dolaproine][dF]-{Oxazinan2yl(1,2)}) | – | – | – | no degradation was observed | – | – | –
5 | CC[C@H](C)[C@@H]([C@@H](CC(=O)N1CCC[C@H]1[C@H](OC)[C@@H](C)C(=O)N[C@H](C(=O)N1CCCCO1)[C@@H](C)c1ccccc1)OC)N(C)C(=O)[C@@H](NC(=O)[C@@H](NC)C(C)C)C(C)C [Example 4, N-Methyl-L-valyl-N-[(3R,4S,5S)-3-methoxy-1-{(2S)-2-[(1R,2R)-1-methoxy-2-methyl-3-{[(2S,3S)-1-(1,2-oxazinan-2-yl)-1-oxo-3-phenylbutan-2-yl]amino}-3-oxopropyl]pyrrolidin-1-yl}-5-methyl-1-oxoheptan-4-yl]-N-methyl-L-valinamide, trifluoroacetic acid salt] (H-[NMeV]V[Dil][Dolaproine][X2]-{Oxazinan2yl(1,2)}) | 14 | 0.2 | – | – | 3 | – | –
6 | CC[C@H](C)[C@@H]([C@@H](CC(=O)N1CCC[C@H]1[C@H](OC)[C@@H](C)C(=O)N[C@@]1(C(=O)N2CCCCO2)C[C@@H]1c1ccccc1)OC)N(C)C(=O)[C@@H](NC(=O)[C@@H](NC)C(C)C)C(C)C [Example 17, N-Methyl-L-valyl-N-[(3R,4S,5S)-3-methoxy-1-{(2S)-2-[(1R,2R)-1-methoxy-2-methyl-3-{[(1S,2R)-1-(1,2-oxazinan-2-ylcarbonyl)-2-phenylcyclopropyl]amino}-3-oxopropyl]pyrrolidin-1-yl}-5-methyl-1-oxoheptan-4-yl]-N-methyl-L-valinamide, trifluoroacetic acid salt] (H-[NMeV]V[Dil][Dolaproine][X1]-{Oxazinan2yl(1,2)}) | 4 | 0.5 | > 24 | no degradation was observed | – | – | –
7 | CC[C@H](C)[C@@H]([C@@H](CC(=O)N1CCC[C@H]1[C@H](OC)[C@@H](C)C(=O)N[C@@H](Cc1ccccc1)C(=O)OC)OC)N(C)C(=O)[C@@H](NC(=O)[C@@H](NC)C(C)C)C(C)C [MMAF-OMe, Monomethylauristatin F methyl ester, reference compound] (H-[NMeV]V[Dil][Dolaproine]F-OMe) | – | – | – | – | – | about 20% | < 1
